Measured values taken from PMC9400670, “Establishing the selective phospholipid membrane coordination, permeation and lysis properties for a series of ‘druggable’ supramolecular self-associating antimicrobial amphiphiles” (Chemical Science, 2022).

Columns and labels:
[1] = Mouse plasma protein binding (rapid equilibrium dialysis) with plasma stability; type: in vitro ADME; conditions: for recovery at 4 h, 2 µM: mouse plasma, read-out: Recovery (PPB assay); for fraction unbound at 4 h, 2 µM: PPB
Protocol: page 7: Section 4: DMPK Methods and Further Discussion Materials used for DMPK studies: Sprague Dawley rat liver microsomes (male, 771 donors, Lot 1910100), CD-1 mouse liver microsomes (male, 6424 donors, Lot 2010017) and human liver microsomes (mixed gender,50 donors, Lot 1810003) were purchased from Sekisui Xenotech (Kansas City, USA). Microsomal incubations: SSA 1-6 and 10 (final concentration 1 µM) were pre-incubated for 10 min in mouse, rat, or human liver microsomes (final concentration 0.5 mg/mL prepared in 100 mM potassium phosphate buffered saline (PBS)) at 37°C. The reaction was initiated with the addition of the cofactor, NADPH-generating system. The NADPH-generating system consisted of NADP (1.3 mM, pH 7.4), glucose-6-phosphate (3.3 mM, pH 7.4), glucose-6-phosphate dehydrogenase (0.4 unit/mL) and MgCl2 (3.3 mM). The reaction was allowed to proceed for 45 min. At 0, 5, 10, 15, 30, and 45 min aliquots were sampled and quenched in ice cold acetonitrile with internal standard. Incubations were conducted in singlicate; control incubations (substituting PBS for NADPH) were conducted simultaneously. All control incubations were within acceptance criteria in mouse, rat, and human microsomes confirming stability was acceptable over 45 minutes in the absence of co-factor. Protein Binding studies: The fraction unbound in mouse plasma (BioIVT, Frankfurt Am Main, Germany) of SSA 1-6 and 10 were measured using a Rapid Equilibrium Dialysis device (Thermo Fisher Scientific, Loughborough, UK). Mouse plasma containing 2 µM of SSA 1-6 and 10 were dialysed against 100 mM PBS for 4h at 37°C at 5% CO2. Samples were removed, matrix matched and quenched with acetonitrile containing internal standard; further processing is described in: Sample preparation and liquid chromatography-mass spectrometry analysis. Caco-2 Permeability studies: The permeability assay for SSA 1-6 and 10 was performed at Cyprotex Discovery Limited (Macclesfield, UK) and analysed at Cancer Research Horizons. SSA 1-6 and 10 were incubated at a final concentration of 10 uM with human intestinal Caco-2 cells at 37°C, 5% CO2 with a relative humidity of 95%. After 120 minutes the apical compartment inserts and the companion plates were separated, and the apical and basolateral samples were transferred. Incubations were conducted in duplicate and the fluorescent membrane integrity marker; Lucifer Yellow was co- incubated with the SSA compounds at the start of the assay. Compounds of known permeability were used as controls and were within acceptance criteria. Further processing is described in: Sample preparation and liquid chromatography-mass spectrometry analysis. Sample preparation and liquid chromatography-mass spectrometry analysis: All samples were centrifuged at 3500 rpm at 4°C for 10 min to precipitate protein and enable sampling of supernatant prior to appropriate dilution for liquid chromatography-mass spectrometry (LC-MS/MS analysis). For the purpose of CLINT determination, samples were analysed using a Waters I-Class ultra-high- performance liquid chromatography (UHPLC) system coupled to a Waters Xevo TQ-XS mass spectrometer (Waters, Elstree, UK). Separation of analytes was achieved using an Accucore Vanquish C18+ column (1.5 µm, 50 x 2.1 mm) (Thermo Fisher Scientific, Hemel Hempstead) at a temperature of 40°C and a binary mobile phase gradient at a flow rate of 0.4 mL/min. Initial LC conditions comprised 95% solvent A (0.1% formic acid + 5 mM ammonium acetate in water), 5% solvent B (0.1% formic acid + 5 mM ammonium acetate in acetonitrile); this was ramped to 90% B at 5 min, and then immediately returned to initial conditions and held for the remaining 0.5 min of the method. Sample analysis was by electrospray ionisation combined with multiple reaction monitoring in negative ion mode. […]

[2] = test system: E. coli polar lipid vesicles; test: Synthetic phospholipid vesicle membrane binding assay (fluorescence polarisation), E. coli polar vesicles; conditions: lipid vesicles added to SSA (0.15 mM); n = 3; error = standard error; SSA alone set to 100 mP
Protocol: For intrinsically fluorescent SSAs 5, 6 and 8–12, FP titration experiments enabled the observation of SSA: phospholipid vesicle interactions. Here, an increase in FP value indicates an increase in the apparent size of the SSA as it interacts with the phospholipid vesicle. […]
Fluorescence polarisation: Lipid films were resuspended in Buffer (150 mM KCl, 10 mM HEPES, pH 7.4, 2 mM EGTA) and subjected to 9 freeze-thaw cycles in liquid nitrogen and extruded 20 times through a 200 nm polycarbonate membrane. Black bottom 96-well plates were prepared by serially diluting desired vesicle solution across the plate, the appropriate SSA solution (100 µL, 0.15 mM) was added to each well to give a total well volume of 200 µL. Fluorescent SSA solutions were set to a FP value of 100 mP. Data were acquired in endpoint mode. […]

[3] = mouse, % SSA recovered from the assay after 4 hours

| SMILES | Plasma stability ([1]; mouse, 4 h, 2 µM) [%] | recovery at 4 h, 2 µM [1, 3] [%] | PPB class ([1]; mouse, plasma) | fraction unbound at 4 h, 2 µM ([1]; mouse, plasma) | Recovery (PPB assay) ([1]; % SSA recovered from the assay after 4 hours) [%] | PPB ([1]; mouse, plasma, 4 h, 2 µM) [%] | increase in FP, E. coli polar [2] [mP] |
| --- | --- | --- | --- | --- | --- | --- | --- |
| O=C(NCS(=O)(=O)O)Nc1ccc(C(F)(F)F)cc1 [SSA 1] | 94 | 91 | low | 0.25 |  |  |  |
| O=C(NCCCS(=O)(=O)O)Nc1ccc(C(F)(F)F)cc1 [SSA 2] | 93 | 79 |  | 0.166 |  |  |  |
| O=C(NCS(=O)(=O)O)Nc1ccc(C(F)(F)F)cc1 [SSA 3] | 89 |  |  |  | 80 | 73.8 |  |
| O=C(O)CNC(=O)Nc1ccc(C(F)(F)F)cc1 [SSA 4] | 96 | 86 | low | 0.328 |  |  |  |
| O=C(NCS(=O)(=O)O)Nc1ccccc1-c1nc2ccccc2s1 [SSA 5] | 92 | 109 | very high | < 0.003 |  |  | 40 ± 4 |
| Cc1ccc2nc(-c3ccc(NC(=O)NCS(=O)(=O)O)cc3)sc2c1 [SSA 6] | 90 | 101 | very high | 0.007 |  |  | 35 ± 3 |
| O=C(NCS(=O)(=O)O)Nc1ccc(-c2nc3ccccc3s2)cc1 [SSA 8] |  |  |  |  |  |  | 27 ± 2 |
| Cc1ccc2nc(-c3ccc(NC(=O)NCCC(=O)O)cc3)sc2c1 [SSA 9] |  |  |  |  |  |  | 53 ± 3 |
| Cc1ccc2nc(-c3ccc(NC(=O)NCCCS(=O)(=O)O)cc3)sc2c1 [SSA 10] | 89 | 94 | very high | 0.007 |  |  | 25 ± 14 |
| Cc1ccc2nc(-c3ccc(NC(=O)NCC(=O)O)cc3)sc2c1 [SSA 11] |  |  |  |  |  |  | 79 ± 1 |
| Cc1ccc2nc(-c3ccc(NC(=S)NCS(=O)(=O)O)cc3)sc2c1 [SSA 12] |  |  |  |  |  |  | 176 ± 2 |
